A short description of the data set: Colour change time after spraying on surfaces and drying in air. The format is physicochemical. The procedure:
This composition of a pH of about 7.0 and of a yellow colour was applied by spraying to various kinds of surfaces, such as wood, painted wood, painted walls, ceramic tile, plastic (polyethylene), glass and stainless steel.
After about 40 minutes of exposure to air (including carbon dioxide), the composition was dried and the yellow colour disappeared.
Other levels of 4-nitrophenol were tested, and it was shown that with 0.05 wt % the yellow colour was somewhat faint but with a shorter colour changing time (about 25 min.), whereas with highest content, i.e. 0.5 resp. 1.0%, the colour change takes more time, i.e. 70 resp. 120 min.
Phenolphthalein was also tested at levels of 0.01 to 1.0 wt %, which all gave acceptable results and a colour change of about 40 min. The pH of the composition was initially adjusted to 9.4 using triethanolamine.

In the case of `O=[N+]([O-])c1ccc(O)cc1` [4-nitrophenol], the colour changing time result (0.05 wt % 4-nitrophenol in the composition, yellow colour somewhat faint) is “about 25 min”. The colour change time (0.5 % 4-nitrophenol in the composition) was found to be 70 min and the colour change time (1.0 % 4-nitrophenol in the composition) worked out at 120 min.
For `O=C1OC(c2ccc(O)cc2)(c2ccc(O)cc2)c2ccccc21` [Phenolphthalein, phenolphthalein], the colour change time entry (phenolphthalein at 0.01 to 1.0 wt %, pH initially adjusted to 9.4 using triethanolamine) was “about 40 min”.
